{"source": "paper PMC5803421", "about": "(International journal of pharmaceutics, 2017)", "system": "anesthetized acute SCI female rats (bladder pressure)", "experiment": "Isovolumetric cystometry in anesthetized acute spinal cord injured rats", "type": "in vivo, rat", "settings": "antagonist 1 mg/kg i.v. after ODT LMN-NKA (4.6 mg/kg)"}
{"molecule": "COC1(C[S@@+]([O-])c2ccccc2)CCN(CCc2c[nH]c3ccc(F)cc23)CC1", "note": "[GR 159898]", "values": [{"measurement": "effect on LMN-NKA ODT mediated increase in bladder pressure", "result": "readily reversed"}]}
